According to US20170121402A1, “ORAL COMPOSITION OF ANTI-TNF ALPHA ANTIBODIES” (Laboratoire Français du Fractionnement et des …, priority 2014, published 2017):

System: interleukin-8 (IL-8) secretion by Caco-2 cells
Experiment: Anti-inflammatory effect on the Caco-2 line: IL-8 secretion after IL-1 beta activation, ELISA
Assay type: cell-based, human
Conditions: differentiated Caco-2 cells (14 days), 24 h preculture with test agent, then 1 ng/ml IL-1 beta for 12 hours
From the text: Caco-2 cells, a colon cancer cell line, are an established cell model of the human intestinal epithelium (Pinto et al., 1983, Biol. Cell, 47, 323-330). These cells secrete interleukin-8 (IL-8), which is one of the major interleukins in the pathogenesis of inflammatory bowel diseases, after activation by interleukin-1 beta (IL-1 beta).
The inventors used the Caco-2 cell line as a model of epithelial cells, and evaluated the effect of compositions according to the invention on interleukin-8 (IL-8) secretion by these cells after activation by interleukin-1 beta (IL-1 beta).
To that end, Caco-2 cells, deposited in 24well plates, were cultured for 14 days until the cells were confluent and in a stable differentiation state. On day 14, the cells were precultured in the presence of caprylic acid, transgenically-produced anti-TNF antibody (adalimumab), and a combination of the two. Twenty-four hours later, the cells were stimulated with 1 ng/ml IL-1 beta for 12 hours. IL-8 levels present in the culture supernatants were measured by ELISA.

## adalimumab [anti-TNF antibody]
  IL-8 levels present in the culture supernatants (IL-8 secretion): induces a decrease in IL-8 levels
